Experimental data: patent US8574563B2 (Bristol-Myers Squibb Company, priority 2006, dated 2013)

Test system: HCV 1b-377-neo replicon cells
Experiment: HCV replicon assay, HCV 1b-377-neo replicon cells (1b FRET)
Format: cell-based, Hepatitis C virus genotype 1b
Details: Hepatitis C virus, HCV 1b-377-neo replicon cells; HCV 1b genotype; read-out: EC50 range against HCV 1b (Table 2, Range)
Summary of the method: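 Compounds tested in HCV genotype 1b-377-neo replicon cells with a FRET read-out. Cells resistant to a reference NS5A inhibitor through a Y2065H NS5A mutation were run alongside wild-type cells.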

Row | SMILES | EC50 [nM]
1 | CC(=O)N[C@@H](C(=O)N1CCC[C@H]1c1ncc(-c2ccc(-c3ccc(-c4cnc([C@@H]5CCCN5C(=O)[C@H](NC(C)=O)C(C)C)[nH]4)cc3)cc2)[nH]1)C(C)C [Example 27, N-((1R)-1-(((2S)-2-(5-(4′-(2-((2S)-1-((2R)-2-acetamido-3-methylbutanoyl)-2-pyrrolidinyl)-1H-imidazol-5-yl)-4-biphenylyl)-1H-imidazol-2-yl)-1-pyrrolidinyl)carbonyl)-2-methylpropyl)acetamide] | 1 to 99
2 | COC(=O)N[C@@H](C(=O)N1CCC[C@H]1c1ncc(-c2ccc(-c3ccc(-c4cnc([C@@H]5CCCN5C(=O)Cc5ccccc5)[nH]4)cc3)cc2)[nH]1)c1ccccc1 [Example 28, methyl ((1R)-2-oxo-1-phenyl-2-((2S)-2-(5-(4′-(2-((2S)-1-(phenylacetyl)-2-pyrrolidinyl)-1H-imidazol-5-yl)-4-biphenylyl)-1H-imidazol-2-yl)-1-pyrrolidinyl)ethyl)carbamate] | 1 to 99
3 | CN(C)[C@@H](C(=O)N1CCC[C@H]1c1ncc(-c2ccc(-c3ccc(-c4cnc([C@@H]5CCCN5C(=O)[C@@H](c5ccccc5)N5CCCCC5)[nH]4)cc3)cc2)[nH]1)c1ccccc1 [Example 28-1, (1R)—N,N-dimethyl-2-oxo-1-phenyl-2-((2S)-2-(5-(4′-(2-((2S)-1-((2R)-2-phenyl-2-(1-piperidinyl)acetyl)-2-pyrrolidinyl)-1H-imidazol-5-yl)-4-biphenylyl)-1H-imidazol-2-yl)-1-pyrrolidinyl)ethanamine] | 0.001 to 0.999
4 | O=C([C@H]1CCCO1)N1CCC[C@H]1c1ncc(-c2ccc(-c3ccc(-c4cnc([C@@H]5CCCN5C(=O)[C@@H](c5ccccc5)N5CCCCC5)[nH]4)cc3)cc2)[nH]1 [Example 28-2, 1-((1R)-2-oxo-1-phenyl-2-((2S)-2-(5-(4′-(2-((2S)-1-((2R)-tetrahydro-2-furanylcarbonyl)-2-pyrrolidinyl)-1H-imidazol-5-yl)-4-biphenylyl)-1H-imidazol-2-yl)-1-pyrrolidinyl)ethyl)piperidine] | 0.001 to 0.999
5 | COC(=O)N[C@@H](C(=O)N1CCC[C@H]1c1ncc(-c2ccc(-c3ccc(-c4cnc([C@@H]5CCCN5C(=O)[C@@H](c5ccccc5)N5CCCCC5)[nH]4)cc3)cc2)[nH]1)c1ccccc1Cl [Example 28-3, methyl ((1R)-1-(2-chlorophenyl)-2-oxo-2-((2S)-2-(5-(4′-(2-((2S)-1-((2R)-2-phenyl-2-(1-piperidinyl)acetyl)-2-pyrrolidinyl)-1H-imidazol-5-yl)-4-biphenylyl)-1H-imidazol-2-yl)-1-pyrrolidinyl)ethyl)carbamate] | 0.001 to 0.999
6 | CN(C)[C@@H](C(=O)N1CCC[C@H]1c1ncc(-c2ccc(-c3ccc(-c4cnc([C@@H]5CCCN5C(=O)[C@@H](c5ccccc5)N5CCCCC5)[nH]4)cc3)cc2)[nH]1)c1ccccc1Cl [Example 28-4, (1R)-1-(2-chlorophenyl)-N,N-dimethyl-2-oxo-2-((2S)-2-(5-(4′-(2-((2S)-1-((2R)-2-phenyl-2-(1-piperidinyl)acetyl)-2-pyrrolidinyl)-1H-imidazol-5-yl)-4-biphenylyl)-1H-imidazol-2-yl)-1-pyrrolidinyl)ethanamine] | 0.001 to 0.999
7 | CN(C)[C@@H](C(=O)N1CCC[C@H]1c1ncc(-c2ccc(-c3ccc(-c4cnc([C@@H]5CCCN5C(=O)[C@@H](c5ccccc5)N5CCCCC5)[nH]4)cc3)cc2)[nH]1)c1ccccc1F [Example 28-5, (1R)-1-(2-fluorophenyl)-N,N-dimethyl-2-oxo-2-((2S)-2-(5-(4′-(2-((2S)-1-((2R)-2-phenyl-2-(1-piperidinyl)acetyl)-2-pyrrolidinyl)-1H-imidazol-5-yl)-4-biphenylyl)-1H-imidazol-2-yl)-1-pyrrolidinyl)ethanamine] | 0.001 to 0.999
8 | COC(=O)N[C@@H](C(=O)N1CCC[C@H]1c1ncc(-c2ccc(-c3ccc(-c4cnc([C@@H]5CCCN5C(=O)N5CCN(C)CC5)[nH]4)cc3)cc2)[nH]1)c1ccccc1 [Example 29, methyl ((1R)-2-((2S)-2-(5-(4′-(2-((2S)-1-((4-methyl-1-piperazinyl)carbonyl)-2-pyrrolidinyl)-1H-imidazol-5-yl)-4-biphenylyl)-1H-imidazol-2-yl)-1-pyrrolidinyl)-2-oxo-1-phenylethyl)carbamate] | 0.001 to 0.999
9 | COC(=O)N[C@@H](C(=O)N1CCC[C@H]1c1ncc(-c2ccc(-c3ccc(-c4cnc([C@@H]5CCCN5C(=O)CN)[nH]4)cc3)cc2)[nH]1)c1ccccc1 [Example 30, methyl ((1R)-2-((2S)-2-(5-(4′-(2-((2S)-1-glycyl-2-pyrrolidinyl)-1H-imidazol-5-yl)-4-biphenylyl)-1H-imidazol-2-yl)-1-pyrrolidinyl)-2-oxo-1-phenylethyl)carbamate] | 1 to 99
10 | COC(=O)N[C@@H](C(=O)N1CCC[C@H]1c1ncc(-c2ccc(-c3ccc(-c4cnc([C@@H]5CCCN5C(C)=O)[nH]4)cc3)cc2)[nH]1)c1ccccc1 [Example 31, methyl ((1R)-2-((2S)-2-(5-(4′-(2-((2S)-1-acetyl-2-pyrrolidinyl)-1H-imidazol-5-yl)-4-biphenylyl)-1H-imidazol-2-yl)-1-pyrrolidinyl)-2-oxo-1-phenylethyl)carbamate] | 0.001 to 0.999
11 | CCC(=O)N1CCC[C@H]1c1ncc(-c2ccc(-c3ccc(-c4cnc([C@@H]5CCCN5C(=O)[C@H](NC(=O)OC)c5ccccc5)[nH]4)cc3)cc2)[nH]1 [Example 32, methyl ((1R)-2-oxo-1-phenyl-2-((2S)-2-(5-(4′-(2-((2S)-1-propionyl-2-pyrrolidinyl)-1H-imidazol-5-yl)-4-biphenylyl)-1H-imidazol-2-yl)-1-pyrrolidinyl)ethyl)carbamate] | 1 to 99
12 | COC(=O)N[C@@H](C(=O)N1CCC[C@H]1c1ncc(-c2ccc(-c3ccc(-c4cnc([C@@H]5CCCN5C(=O)C5CC5)[nH]4)cc3)cc2)[nH]1)c1ccccc1 [Example 33, methyl ((1R)-2-((2S)-2-(5-(4′-(2-((2S)-1-(cyclopropylcarbonyl)-2-pyrrolidinyl)-1H-imidazol-5-yl)-4-biphenylyl)-1H-imidazol-2-yl)-1-pyrrolidinyl)-2-oxo-1-phenylethyl)carbamate] | 0.001 to 0.999
13 | COC(=O)N[C@@H](C(=O)N1CCC[C@H]1c1ncc(-c2ccc(-c3ccc(-c4cnc([C@@H]5CCCN5C(=O)CC5CC5)[nH]4)cc3)cc2)[nH]1)c1ccccc1 [Example 34, methyl ((1R)-2-((2S)-2-(5-(4′-(2-((2S)-1-(cyclopropylacetyl)-2-pyrrolidinyl)-1H-imidazol-5-yl)-4-biphenylyl)-1H-imidazol-2-yl)-1-pyrrolidinyl)-2-oxo-1-phenylethyl)carbamate] | 0.001 to 0.999
14 | COC(=O)N[C@@H](C(=O)N1CCC[C@H]1c1ncc(-c2ccc(-c3ccc(-c4cnc([C@@H]5CCCN5C(=O)[C@@H](C)O)[nH]4)cc3)cc2)[nH]1)c1ccccc1 [Example 35, methyl ((1R)-2-((2S)-2-(5-(4′-(2-((2S)-1-((2R)-2-hydroxypropanoyl)-2-pyrrolidinyl)-1H-imidazol-5-yl)-4-biphenylyl)-1H-imidazol-2-yl)-1-pyrrolidinyl)-2-oxo-1-phenylethyl)carbamate] | 0.001 to 0.999
15 | COC(=O)N[C@@H](C(=O)N1CCC[C@H]1c1ncc(-c2ccc(-c3ccc(-c4cnc([C@@H]5CCCN5C(=O)[C@H]5CCCO5)[nH]4)cc3)cc2)[nH]1)c1ccccc1 [Example 36, methyl ((1R)-2-oxo-1-phenyl-2-((2S)-2-(5-(4′-(2-((2S)-1-((2R)-tetrahydro-2-furanylcarbonyl)-2-pyrrolidinyl)-1H-imidazol-5-yl)-4-biphenylyl)-1H-imidazol-2-yl)-1-pyrrolidinyl)ethyl)carbamate] | 0.001 to 0.999
